Patent US20220023289A1, “Application Of Pyrroloquinoline Quinone In Preparation Of Medicament Used For Preventing And Treating Acute Altitude Sickness And Acute Altitude Hypoxia Injury” (priority 2018, published 2022)

Experiments:
Type in all cases: in vivo, Wistar rat
[1] = system: rats exposed to acute altitude hypoxia; experiment: Blood glucose in rats exposed to acute altitude hypoxia (6000 m, 8 h, after 7 days intragastric)
Protocol: (§1) Select healthy Wistar rats weight 160-200 g, half female and half male. After feeding for 3 days, these Wistar rats are randomly divided into ten groups according to their body weight, each group has 16±2 rats. The groups are divided as follows: five groups of the hypoxic exposure drug test group, respectively, are given 0.91 mg/kg, 1.83 mg/kg, 3.66 mg/kg, 7.31 mg/kg, and 14.63 mg/kg drugs. […] After continuous intragastric administration for 7 days, the animals in the hypoxic exposure group are simultaneously put into the decompression and hypoxia compound experimental chamber, the hatch is closed, and the pressure is reduced at a speed of 10 m/s. After being raised to an altitude of 6000 m and maintained for 8 hours, the speed in 10 m/s drops is reduced to normal altitude, open the hatch, and then take out the animal, collect blood samples (after standing for 1 hour, the supernatant is centrifuged and stored at −20° C.), and liver tissue samples. Detection indicator includes body weight, serum blood glucose, ATP, lactic acid, endothelin, nitric oxide, SOD, CO, MDA related to oxidative stress, and total protein, albumin, triglycerides, total cholesterol, high-density lipoprotein cholesterol, low-density lipoprotein cholesterol, glutamic pyruvic transaminase, total bilirubin, gluamic oxalacetic transaminase, serum urea nitrogen, creatinine, uric acid, lactate dehydrogenase, creatine kinase, α-hydroxybutyrate dehydrogenase; liver ATP, hepatic glycogen. Except that the formal oxygen control animal group is not put into the decompression and hypoxia compound experimental chamber, other experimental conditions and detection indicators are the same.
(§2) Measure blood glucose, total protein, albumin, triglycerides, total cholesterol, high-density lipoprotein cholesterol, low-density lipoprotein cholesterol, glutamic-pyruvic transaminase, total bilirubin, glutamic oxalacetic transaminase, serum urea nitrogen, creatinine, uric acid, lactate dehydrogenase, creatine kinase, α-hydroxybutyrate dehydrogenase, blood homocysteine by using an automatic blood biochemical analyzer.

[2] = system: rats exposed to acute altitude hypoxia; experiment: Lipid metabolism in rats exposed to acute altitude hypoxia
Protocol: as §1, §2

[3] = system: rats exposed to acute altitude hypoxia; experiment: Liver function of rats exposed to acute altitude hypoxia
Protocol: as §1, §2

[4] = system: rats exposed to acute altitude hypoxia; experiment: Liver ATP and glycogen in rats exposed to acute altitude hypoxia
Protocol: Determination of adenosine triphosphate (ATP): Perform enzyme-linked immunosorbent assay by double-antibody one-step sandwich method. To the coated microwells pre-coated with rat adenosine triphosphate (ATP) capture antibody, add in sequence the specimens, standard, and HRP-labeled detection antibody, and then incubate and wash thoroughly. Use a substrate TMB for color development, TMB is converted into blue under the catalysis of peroxidase and converted into the final yellow color under the action of acid. The color intensity is positively correlated with the rat adenosine triphosphate (ATP) in the sample. […] Determination of liver glycogen (GC): Perform enzyme-linked immunosorbent assay by double-antibody one-step sandwich method. To the coated microwells pre-coated with rat liver glycogen (GC) capture antibody, add in sequence the specimens, standard, and HRP-labeled detection antibody, and then incubate and wash thoroughly. Use a substrate TMB for color development, TMB is converted into blue under the catalysis of peroxidase and converted into the final yellow color under the action of acid. The color intensity is positively correlated with the rat liver glycogen (GC) in the sample.

[5] = acute hypoxia exposed female rats
[6] = female rats, hypoxia, 0.91 mg/kg
[7] = female rats, hypoxia, 1.83 mg/kg
[8] = female rats, hypoxia, 3.66 mg/kg
[9] = female rats, hypoxia, 7.31 mg/kg
[10] = female rats, hypoxia, 14.63 mg/kg
[11] = female rats, normoxia, 3.66 mg/kg
[12] = male rats, hypoxia, 14.63 mg/kg

O=C(O)c1cc(C(=O)O)c2c(n1)C(=O)C(=O)c1cc(C(=O)O)[nH]c1-2 [PQQ, pyrroloquinoline quinone]
effect on blood glucose [1, 5]: increasing blood glucose | Blood sugar [1, 6]: 8.59 ± 0.48 mmol/L | Blood sugar [1, 7]: 8.28 ± 0.84 mmol/L | Blood sugar [1, 8]: 8.27 ± 0.37 mmol/L | Blood sugar [1, 9]: 7.91 ± 0.65 mmol/L | Blood sugar [1, 10]: 7.55 ± 0.48 mmol/L | effect on blood glucose ([1]; female rats, normoxia): no significant effects | Blood sugar [1, 11]: 8.13 ± 0.57 mmol/L | effect on blood glucose level ([1]; male rats): no significant effects | Blood sugar ([1]; male rats, hypoxia, 0.91 mg/kg): 7.35 ± 1.94 mmol/L | Blood sugar ([1]; male rats, hypoxia, 1.83 mg/kg): 8.21 ± 1.46 mmol/L | Blood sugar ([1]; male rats, hypoxia, 3.66 mg/kg): 8.97 ± 1.44 mmol/L | Blood sugar ([1]; male rats, hypoxia, 7.31 mg/kg): 8.28 ± 1.57 mmol/L | Blood sugar [1, 12]: 8.85 ± 2.04 mmol/L | High density lipoprotein cholesterol [2, 6]: 1.30 ± 0.07 mmol/L | Low density lipoprotein cholesterol [2, 6]: 0.12 ± 0.01 mmol/L | Total cholesterol [2, 6]: 1.69 ± 0.11 mmol/L | High density lipoprotein cholesterol [2, 7]: 1.18 ± 0.14 mmol/L | Low density lipoprotein cholesterol [2, 7]: 0.10 ± 0.02 mmol/L | Total cholesterol [2, 7]: 1.56 ± 0.17 mmol/L | High density lipoprotein cholesterol [2, 8]: 1.14 ± 0.10 mmol/L | Low density lipoprotein cholesterol [2, 8]: 0.10 ± 0.02 mmol/L | Total cholesterol [2, 8]: 1.47 ± 0.11 mmol/L | High density lipoprotein cholesterol [2, 9]: 1.27 ± 0.09 mmol/L | Low density lipoprotein cholesterol [2, 9]: 0.10 ± 0.02 mmol/L | Total cholesterol [2, 9]: 1.69 ± 0.09 mmol/L | High density lipoprotein cholesterol [2, 10]: 1.28 ± 0.11 mmol/L | Low density lipoprotein cholesterol [2, 10]: 0.11 ± 0.02 mmol/L | Total cholesterol [2, 10]: 1.64 ± 0.13 mmol/L | effect on total cholesterol, low-density and high-density lipoprotein cholesterol ([2]; female rats, normoxia): no significant effects | High density lipoprotein cholesterol [2, 11]: 1.39 ± 0.10 mmol/L | Low density lipoprotein cholesterol [2, 11]: 0.14 ± 0.03 mmol/L | Total cholesterol [2, 11]: 1.87 ± 0.10 mmol/L | effect on total cholesterol, low-density and high-density lipoprotein cholesterol ([2]; hypoxia exposed female rats): no significant effects | effect on triglycerides ([2]; male rats exposed to hypoxia): is not found | High density lipoprotein cholesterol ([2]; male rats, hypoxia, 0.91 mg/kg): 1.03 ± 0.09 mmol/L | Low density lipoprotein cholesterol ([2]; male rats, hypoxia, 0.91 mg/kg): 0.16 ± 0.03 mmol/L | Total cholesterol ([2]; male rats, hypoxia, 0.91 mg/kg): 1.47 ± 0.15 mmol/L | Triglycerides ([2]; male rats, hypoxia, 0.91 mg/kg): 1.25 ± 0.64 mmol/L | High density lipoprotein cholesterol ([2]; male rats, hypoxia, 1.83 mg/kg): 1.23 ± 0.11 mmol/L | Low density lipoprotein cholesterol ([2]; male rats, hypoxia, 1.83 mg/kg): 0.20 ± 0.02 mmol/L | Total cholesterol ([2]; male rats, hypoxia, 1.83 mg/kg): 1.71 ± 0.90 mmol/L | Triglycerides ([2]; male rats, hypoxia, 1.83 mg/kg): 1.06 ± 0.35 mmol/L | High density lipoprotein cholesterol ([2]; male rats, hypoxia, 3.66 mg/kg): 1.28 ± 0.09 mmol/L | Low density lipoprotein cholesterol ([2]; male rats, hypoxia, 3.66 mg/kg): 0.19 ± 0.04 mmol/L | Total cholesterol ([2]; male rats, hypoxia, 3.66 mg/kg): 1.80 ± 0.16 mmol/L | Triglycerides ([2]; male rats, hypoxia, 3.66 mg/kg): 1.36 ± 0.58 mmol/L | High density lipoprotein cholesterol ([2]; male rats, hypoxia, 7.31 mg/kg): 1.23 ± 0.10 mmol/L | Low density lipoprotein cholesterol ([2]; male rats, hypoxia, 7.31 mg/kg): 0.16 ± 0.02 mmol/L | Total cholesterol ([2]; male rats, hypoxia, 7.31 mg/kg): 1.69 ± 0.10 mmol/L | Triglycerides ([2]; male rats, hypoxia, 7.31 mg/kg): 1.35 ± 0.36 mmol/L | High density lipoprotein cholesterol [2, 12]: 1.44 ± 0.15 mmol/L | Low density lipoprotein cholesterol [2, 12]: 0.19 ± 0.03 mmol/L | Total cholesterol [2, 12]: 1.95 ± 0.15 mmol/L | Triglycerides [2, 12]: 1.40 ± 0.74 mmol/L | effect on low density lipoprotein cholesterol ([2]; male rats, low-dose): no significant effects | effect on total cholesterol and high-density lipoprotein cholesterol ([2]; male rats, low-dose): reducing the amount | effect on serum glutamic-pyruvic transaminase and glutamic oxalacetic transaminase activities [3, 5]: has been not found | Glutamic oxalacetic transaminase [3, 6]: 80.71 ± 12.49 U | Glutamic-pyruvic transaminase [3, 6]: 29.86 ± 4.30 U | Glutamic oxalacetic transaminase [3, 7]: 84.71 ± 18.97 U | Glutamic-pyruvic transaminase [3, 7]: 27.86 ± 6.28 U | Glutamic oxalacetic transaminase [3, 8]: 82.29 ± 17.75 U | Glutamic-pyruvic transaminase [3, 8]: 32.57 ± 5.35 U | Glutamic oxalacetic transaminase [3, 9]: 79.29 ± 16.06 U | Glutamic-pyruvic transaminase [3, 9]: 32.57 ± 6.37 U | Glutamic oxalacetic transaminase [3, 10]: 83.00 ± 20.18 U | Glutamic-pyruvic transaminase [3, 10]: 36.57 ± 8.52 U | effect on aspartate aminotransferase activity ([3]; female rats, normoxia): slightly increasing | effect on glutamic-pyruvic transaminase ([3]; female rats, normoxia): no significant effect | Glutamic oxalacetic transaminase [3, 11]: 120.29 ± 11.90 U | Glutamic-pyruvic transaminase [3, 11]: 37.14 ± 4.45 U | effect on serum glutamic-pyruvic transaminase, glutamic oxalacetic transaminase and total bilirubin ([3]; male rats exposed to acute hypoxia): is not found | Glutamic oxalacetic transaminase ([3]; male rats, hypoxia, 0.91 mg/kg): 79.17 ± 15.66 U | Glutamic-pyruvic transaminase ([3]; male rats, hypoxia, 0.91 mg/kg): 36.63 ± 8.30 U | Total bilirubin ([3]; male rats, hypoxia, 0.91 mg/kg): 0.51 ± 0.12 µmol/L | Glutamic oxalacetic transaminase ([3]; male rats, hypoxia, 1.83 mg/kg): 85.80 ± 13.80 U | Glutamic-pyruvic transaminase ([3]; male rats, hypoxia, 1.83 mg/kg): 40.63 ± 5.18 U | Total bilirubin ([3]; male rats, hypoxia, 1.83 mg/kg): 0.59 ± 0.12 µmol/L | Glutamic oxalacetic transaminase ([3]; male rats, hypoxia, 3.66 mg/kg): 99.00 ± 15.52 U | Glutamic-pyruvic transaminase ([3]; male rats, hypoxia, 3.66 mg/kg): 42.50 ± 4.93 U | Total bilirubin ([3]; male rats, hypoxia, 3.66 mg/kg): 0.60 ± 0.15 µmol/L | Glutamic oxalacetic transaminase ([3]; male rats, hypoxia, 7.31 mg/kg): 94.40 ± 12.28 U | Glutamic-pyruvic transaminase ([3]; male rats, hypoxia, 7.31 mg/kg): 43.13 ± 8.92 U | Total bilirubin ([3]; male rats, hypoxia, 7.31 mg/kg): 0.46 ± 0.15 µmol/L | Glutamic oxalacetic transaminase [3, 12]: 109.00 ± 11.68 U | Glutamic-pyruvic transaminase [3, 12]: 48.25 ± 8.86 U | Total bilirubin [3, 12]: 0.53 ± 0.15 µmol/L | effect on liver ATP and glycogen content ([4]; female rats, after hypoxia exposure and normoxia): no significant effects | liver Glycogen [4, 6]: 2.52 ± 0.36 ng/mL | liver ATP [4, 7]: 1.58 ± 0.27 µg/mL | liver Glycogen [4, 7]: 2.89 ± 0.57 ng/mL | liver ATP [4, 8]: 1.64 ± 0.37 µg/mL | liver Glycogen [4, 8]: 2.84 ± 0.67 ng/mL | liver Glycogen [4, 9]: 3.07 ± 0.19 ng/mL | liver Glycogen [4, 10]: 3.62 ± 0.38 ng/mL | liver ATP [4, 11]: 1.62 ± 0.13 µg/mL | liver Glycogen [4, 11]: 2.89 ± 0.28 ng/mL | effect on liver ATP and glycogen content ([4]; male rats): can increase | liver Glycogen ([4]; male rats, hypoxia, 0.91 mg/kg): 2.41 ± 0.41 ng/mL | liver Glycogen ([4]; male rats, hypoxia, 1.83 mg/kg): 2.23 ± 0.17 ng/mL | liver Glycogen ([4]; male rats, hypoxia, 3.66 mg/kg): 2.70 ± 0.84 ng/mL | liver Glycogen ([4]; male rats, hypoxia, 7.31 mg/kg): 2.86 ± 0.43 ng/mL | liver Glycogen [4, 12]: 2.55 ± 0.28 ng/mL
